One block for each molecule: values may come before it.
How the values were obtained:
[1] = test system: mclk1 +/+ ES cells; assay: Cell death assay: resistance to menadione (trypan blue exclusion); format: cell-based, mouse; settings: for Resistance to menadione [% viability]: 24 hours in menadione 6 μM, with the supplement named as label; for Resistance to menadione, percent of the wild-type phenotype: number in brackets
Experimental: (§1) Cells were seeded in six-well dishes at 1×10^5/well in ES cell medium with or without supplements (UQ9: 0.16 μM, sodium pyvurate: 110 mg/L). At different time points, the cells were trypsinized and counted with a hemocytometer. The cells were also analyzed by the trypan blue exclusion method 24 hours after treatment with menadione (6 μM).

[2] = test system: mclk1 −/− ES cells; assay: as above; format: cell-based, mouse; settings: for Resistance to menadione [% viability]: 24 hours in menadione 6 μM, with the supplement named as label; for Resistance to menadione, percent of the wild-type phenotype: number in brackets
Experimental: as §1

[3] = test system: mclk1 +/+ ES cells; assay: Oxygen consumption; format: cell-based, mouse; design: Oxygen consumption: scale not given here; settings: for Oxygen consumption, percent of the wild-type phenotype: number in brackets
[4] = test system: mclk1 −/− ES cells; assay: Oxygen consumption; format: cell-based, mouse; settings: for Oxygen consumption, percent of the wild-type phenotype: number in brackets; for Effect on low respiration, slow growth, and LIF resistance phenotypes: sentence also covers growth and LIF assays
[5] = test system: mclk1 +/+ ES cells; assay: Growth rate (cell multiplication); format: cell-based, mouse; settings: for Cell multiplication, percent of the wild-type phenotype: number in brackets; for Cell multiplication: number of cells on day 5, day 1 being 1 × 10^5
Experimental: as §1

[6] = test system: mclk1 −/− ES cells; assay: Growth rate (cell multiplication); format: cell-based, mouse; settings: for Cell multiplication, percent of the wild-type phenotype: number in brackets; for Cell multiplication: number of cells on day 5, day 1 being 1 × 10^5
Experimental: as §1

[7] = test system: mclk1 +/+ ES cells; assay: LIF requirement assay; format: cell-based, mouse; design: LIF requirement [% undifferentiated colonies, n = 300]: dose or concentration left out as unconfirmed; settings: for LIF requirement [% undifferentiated colonies, n = 300]: day 3, medium with LIF; for LIF requirement, percent of the wild-type phenotype: number in brackets
Experimental: (§2) ES cells were plated at a density of 500 cells/cm^2 in gelatin-coated 6-well plates in ES cell medium containing various concentration of LIF. Three days after inoculation, the proportion of undifferentiated colonies was determined after scoring the morphology of 300 randomly chosen colonies.

[8] = test system: mclk1 −/− ES cells; assay: LIF requirement assay; format: cell-based, mouse; settings: number in brackets
Experimental: as §2

[9] = test system: mclk1 +/+ ES cells; assay: Reactive oxygen species measurement (DCHF-DA fluorescence); format: cell-based, mouse; settings: for Basal ROS levels, percent of the wild-type phenotype / Induced ROS levels, percent of the wild-type phenotype: number in brackets; for Induced ROS levels: oxidative stress induced by 0.1 mM FeSO4 and 0.2 mM sodium ascorbate
Experimental: (§3) For the fluorimetric measurement of ROS, cells were incubated with 10 μM DCHF-DA (Molecular Probes) for 20 min at 37° C. ROS levels were measured fluorimetrically with excitation and emission wavelenghts of 495 nm and 530 nm, respectively. Oxidative stress was induced by incubating the cells loaded with DCHF-DA with 0.1 mM FeSO4 and 0.2 mM sodium ascorbate.

[10] = test system: mclk1 −/− ES cells; assay: as above; format: cell-based, mouse; settings: for Basal ROS levels, percent of the wild-type phenotype / Induced ROS levels, percent of the wild-type phenotype: number in brackets; for Induced ROS levels: oxidative stress induced by 0.1 mM FeSO4 and 0.2 mM sodium ascorbate
Experimental: as §3

[11] = test system: mclk1 −/− ES cells; assay: Sensitivity to cell death-inducing agents (trypan blue exclusion); format: cell-based, mouse; settings: for Sensitivity of mclk1 −/− ES cells to the cell death-inducing agent: compared with mclk1 +/+ cells, etoposide 20 μM 24 h, anisomysin 2 μM 24 h, staurosporine 0.4 μM 24 h, all-trans retinoic acid 1 μM 96 h, sodium azide 15 μM 24 h
Experimental: We tested serum starvation (48 hours) and treatment with etoposide (20 μM, 24 hours), anisomysin (2 μM, 24 hours), staurosporine (0.4 μM; 24 hours), all-trans retinoic acid (1 μM, 96 hours) and sodium azide (15 μM, 24 hours).

[12] = molecular target: T1, Mitochondrial complex II (Mus musculus, UniProt Q9CQA3+Q9CXV1+Q9CZB0); assay: Mitochondrial complex II activity of mclk1 −/− ES cells; format: biochemical
T1 construct: mitochondria (containing 50 μg protein) were pre-incubated with reaction buffer; endogenous in cells; host or cells: mitochondria isolated from mouse mclk1 +/+ and mclk1 -/- ES cells
T1 sequence (Q8K2B3 43-664 partner): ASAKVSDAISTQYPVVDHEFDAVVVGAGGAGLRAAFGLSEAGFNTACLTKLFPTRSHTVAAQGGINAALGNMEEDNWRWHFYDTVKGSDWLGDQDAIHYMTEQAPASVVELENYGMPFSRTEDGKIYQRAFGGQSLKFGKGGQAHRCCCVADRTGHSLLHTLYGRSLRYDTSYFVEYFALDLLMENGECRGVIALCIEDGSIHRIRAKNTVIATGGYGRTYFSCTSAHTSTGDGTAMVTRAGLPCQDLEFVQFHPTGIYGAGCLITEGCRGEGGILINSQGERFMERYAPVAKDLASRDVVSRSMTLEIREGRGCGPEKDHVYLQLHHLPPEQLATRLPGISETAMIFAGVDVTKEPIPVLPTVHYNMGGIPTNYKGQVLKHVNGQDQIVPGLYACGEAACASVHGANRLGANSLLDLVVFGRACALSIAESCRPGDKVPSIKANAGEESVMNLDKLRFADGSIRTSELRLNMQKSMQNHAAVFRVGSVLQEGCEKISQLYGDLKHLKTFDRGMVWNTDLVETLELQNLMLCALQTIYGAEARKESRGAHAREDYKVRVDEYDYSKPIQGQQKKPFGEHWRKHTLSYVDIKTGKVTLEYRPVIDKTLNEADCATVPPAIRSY
T1 sequence (Q9CQA3 31-282): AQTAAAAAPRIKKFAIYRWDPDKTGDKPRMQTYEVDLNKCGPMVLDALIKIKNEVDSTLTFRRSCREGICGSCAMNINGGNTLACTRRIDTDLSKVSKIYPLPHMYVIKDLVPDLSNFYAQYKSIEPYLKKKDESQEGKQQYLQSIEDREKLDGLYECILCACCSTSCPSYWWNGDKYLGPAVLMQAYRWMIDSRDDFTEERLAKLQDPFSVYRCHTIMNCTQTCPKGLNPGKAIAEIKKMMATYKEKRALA
T1 sequence (Q9CZB0 30-169): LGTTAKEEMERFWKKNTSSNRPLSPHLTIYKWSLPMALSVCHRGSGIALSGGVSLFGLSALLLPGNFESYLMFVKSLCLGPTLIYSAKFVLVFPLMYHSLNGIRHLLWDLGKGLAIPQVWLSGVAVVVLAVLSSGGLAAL
T1 sequence (Q9CXV1 57-159): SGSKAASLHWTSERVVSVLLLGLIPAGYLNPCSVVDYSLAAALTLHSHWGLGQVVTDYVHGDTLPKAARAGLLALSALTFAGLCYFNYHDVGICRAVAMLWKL
Experimental: Mitochondrial complex II activity was measured as follows: mitochondria (containing 50 μg protein) were pre-incubated with reaction buffer ([…]) for 10 minutes at room temperature. The reaction was started by adding 2 μg/ml Antimycin A, 2 μg/ml Rotenone, 2 mM KCN, 50 μM 2,6-Dichlorophenolindophenol (Sigma) in the presence or absence of 65 μM Q1. The linear decrease in absorbance at 600 nm was recorded (ε=21 mM-1 cm^−1).

[13] = mclk1 −/− ES cells, number in brackets

Structure (SMILES): CC(=O)C(=O)[O-].[Na+] [Sodium pyruvate, sodium pyruvate]
Resistance to menadione [% viability] [1]: 23 ± 7.5 % viability
Resistance to menadione, percent of the wild-type phenotype [1]: (101) percent of the wild-type phenotype
Resistance to menadione [% viability] [2]: 68.9 ± 6.5 % viability
Resistance to menadione, percent of the wild-type phenotype [2]: (304) percent of the wild-type phenotype
Oxygen consumption [3]: 9.1 ± 0.4 103 μl O2/sec/μg of protein
Oxygen consumption, percent of the wild-type phenotype [3]: (98) percent of the wild-type phenotype
Oxygen consumption [4]: 7.9 ± 0.4 103 μl O2/sec/μg of protein
Oxygen consumption, percent of the wild-type phenotype [4]: (85) percent of the wild-type phenotype
Effect on low respiration, slow growth, and LIF resistance phenotypes [4]: ameliorated
Cell multiplication, percent of the wild-type phenotype [5]: (99) percent of the wild-type phenotype
Cell multiplication [5]: 25.0 ± 4.8 ×10^5 cells
Cell multiplication, percent of the wild-type phenotype [6]: (75) percent of the wild-type phenotype
Cell multiplication [6]: 18.9 ± 2.8 ×10^5 cells
LIF requirement [% undifferentiated colonies, n = 300] [7]: 39.3 ± 12.7 % undifferentiated colonies
LIF requirement, percent of the wild-type phenotype [7]: (90) percent of the wild-type phenotype
LIF requirement, percent of the wild-type phenotype [8]: (418) percent of the wild-type phenotype
Basal ROS levels [9]: 4.1 ± 0.3 Fluorescence Unit × 100/μg pro
Basal ROS levels, percent of the wild-type phenotype [9]: (100) percent of the wild-type phenotype
Induced ROS levels, percent of the wild-type phenotype [9]: (102) percent of the wild-type phenotype
Induced ROS levels [9]: 11.8 ± 1.2 Fluorescence Unit × 100/μg Pro
Basal ROS levels [10]: 2.3 ± 0.2 Fluorescence Unit × 100/μg pro
Basal ROS levels, percent of the wild-type phenotype [10]: (57) percent of the wild-type phenotype
Induced ROS levels, percent of the wild-type phenotype [10]: (70) percent of the wild-type phenotype
Induced ROS levels [10]: 8.1 ± 1.1 Fluorescence Unit × 100/μg Pro
Resistance of mclk1 −/− cells to cell death-inducing agents upon treatment with sodium pyruvate ([11]; etoposide, anisomycin, all-trans retinoic acid, serum withdrawal): indistinguishable from that of the mclk1 +/+ cells

Mitochondrial complex II activity without exogenous Q1 ([12]; mclk1 −/− ES cells grown with the supplement): 9.1 ± 0.5 nmol/min/mg protein
Mitochondrial complex II activity with exogenous Q1 ([12]; mclk1 −/− ES cells grown with the supplement, Q1 added in vitro): 39.0 ± 3.5 nmol/min/mg protein
Mitochondrial complex II activity with exogenous Q1, percent of the wild-type phenotype [12, 13]: (64) percent of the wild-type phenotype
Mitochondrial complex II activity without exogenous Q1, percent of the wild-type phenotype [12, 13]: (60) percent of the wild-type phenotype
Structure (SMILES): COC1=C(OC)C(=O)C(C/C=C(\C)CC/C=C(\C)CC/C=C(\C)CC/C=C(\C)CC/C=C(\C)CC/C=C(\C)CC/C=C(\C)CC/C=C(\C)CC/C=C(\C)CCC=C(C)C)=C(C)C1=O [UQ9, ubiquinone]
Resistance to menadione [% viability] [1]: 24 ± 2.9 % viability
Resistance to menadione, percent of the wild-type phenotype [1]: (105) percent of the wild-type phenotype
Resistance to menadione [% viability] [2]: 91.3 ± 3.4 % viability
Resistance to menadione, percent of the wild-type phenotype [2]: (403) percent of the wild-type phenotype
Oxygen consumption [3]: 8.96 ± 0.8 103 μl O2/sec/μg of protein
Oxygen consumption, percent of the wild-type phenotype [3]: (96) percent of the wild-type phenotype
Oxygen consumption [4]: 6.8 ± 0.7 103 μl O2/sec/μg of protein
Oxygen consumption, percent of the wild-type phenotype [4]: (72) percent of the wild-type phenotype
Effect on low respiration, slow growth, and LIF resistance phenotypes [4]: ameliorated
Cell multiplication, percent of the wild-type phenotype [5]: (100) percent of the wild-type phenotype
Cell multiplication [5]: 25.3 ± 5.5 ×10^5 cells
Cell multiplication, percent of the wild-type phenotype [6]: (69) percent of the wild-type phenotype
Cell multiplication [6]: 17.5 ± 0.4 ×10^5 cells
LIF requirement [% undifferentiated colonies, n = 300] [7]: 39.0 ± 18.5 % undifferentiated colonies
LIF requirement, percent of the wild-type phenotype [7]: (90) percent of the wild-type phenotype
LIF requirement, percent of the wild-type phenotype [8]: (446) percent of the wild-type phenotype
Basal ROS levels [9]: 3.8 ± 0.2 Fluorescence Unit × 100/μg pro
Basal ROS levels, percent of the wild-type phenotype [9]: (94) percent of the wild-type phenotype
Induced ROS levels, percent of the wild-type phenotype [9]: (100) percent of the wild-type phenotype
Induced ROS levels [9]: 11.5 ± 0.5 Fluorescence Unit × 100/μg Pro
Basal ROS levels [10]: 2.4 ± 0.3 Fluorescence Unit × 100/μg pro
Basal ROS levels, percent of the wild-type phenotype [10]: (59) percent of the wild-type phenotype
Induced ROS levels, percent of the wild-type phenotype [10]: (57) percent of the wild-type phenotype
Induced ROS levels [10]: 6.7 ± 1.2 Fluorescence Unit × 100/μg Pro

Structure (SMILES): CC1=C(/C=C/C(C)=C/C=C/C(C)=C/C(=O)O)C(C)(C)CCC1 [all-trans retinoic acid]
Sensitivity of mclk1 −/− ES cells to the cell death-inducing agent [11]: resistant

Structure (SMILES): COc1ccc(C[C@H]2NC[C@H](O)[C@H]2OC(C)=O)cc1 [anisomycin]
Sensitivity of mclk1 −/− ES cells to the cell death-inducing agent [11]: resistant

Structure (SMILES): COc1cc([C@@H]2c3cc4c(cc3[C@@H](O[C@@H]3O[C@@H]5CO[C@@H](C)O[C@H]5[C@H](O)[C@H]3O)[C@H]3COC(=O)[C@H]23)OCO4)cc(OC)c1O [etoposide]
Sensitivity of mclk1 −/− ES cells to the cell death-inducing agent [11]: resistant

Structure (SMILES): CC1=CC(=O)c2ccccc2C1=O [menadione]
Resistance to menadione [% viability] [1]: 22.7 ± 5.4 % viability
Resistance to menadione, percent of the wild-type phenotype [1]: (100) percent of the wild-type phenotype
Resistance to menadione [% viability] [2]: 68.4 ± 5.4 % viability
Resistance to menadione, percent of the wild-type phenotype [2]: (304) percent of the wild-type phenotype
Sensitivity of mclk1 −/− ES cells to the cell death-inducing agent [11]: resistance

Structure (SMILES): CN[C@@H]1C[C@H]2O[C@@](C)([C@@H]1OC)n1c3ccccc3c3c4c(c5c6ccccc6n2c5c31)C(=O)NC4 [staurosporine]
Sensitivity of mclk1 −/− ES cells to the cell death-inducing agent [11]: neither resistant nor hyper-sensitive

Source: patent publication US20060088509A1, “Isolated clk-1 -/- cells from clk-1 heterozygous animals and their use in treating oxidative stress disorders” (priority 2004, published 2006)
